Source: patent publication US20260250289A1, “BICYCLIC HETEROCYCLES AND THEIR USE AS WRN INHIBITORS” (Novartis AG, priority 2022, published 2026)

What was measured:
[1] = molecular target: T1, WRN helicase (aa N517-P1238) (Homo sapiens, UniProt Q14191); assay: WRN ATPase assay (DNA dependent ATP hydrolysis, ADP-Glo); type: biochemical; conditions: 3 hours pre-incubation, 300 micromolar ATP, FLAP26 DNA; geometric mean of at least 2
T1 construct: The core helicase motif of the WRN protein (aa N517-P1238) was produced for this assay; His (N); ZZ (N); 3C protease cleavage site (N); made in house; host or cells: Sf21 insect cells (baculovirus; virus and BIICs made in SF9)
Procedure, shortened: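 DNA-dependent ATP hydrolysis detected as ADP by ADP-Glo luminescence, using 300 μM ATP, 0.2 nM FLAP26 substrate and 10 nM WRN aa N517-P1238 (Tris pH 7.5 buffer, 2 mM MgCl2, 50 mM NaCl). IC50s fitted from normalized duplicate half-log dilutions; reported as geometric means of at least 2 replicates.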

SW48 cells = assay: Proliferation assay SW48 (CellTiterGlo); type: cell-based; conditions: Homo sapiens, SW48, 96 h, SW48 colon carcinoma cells, 96 hours, CellTiterGlo; geometric mean of at least 2; read-out: Proliferation Assay SW48 GI50
Procedure, shortened: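 Read-out is CellTiterGlo luminescence after 96 hours of compound exposure, with % growth calculated against day-0 and vehicle-treated ATP levels. SW48 seeded at 2,000 cells/well, dosed next day with eight 3-fold serial dilutions, 0.1% DMSO. GI50 reported as geometric mean, at least 2 replicates.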

DLD1-WRN-KO cells = assay: Proliferation assay DLD1-WRN-KO (CellTiterGlo, off-target effects); type: cell-based; conditions: 96 hours, geometric mean of at least 2
Procedure, shortened: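 DLD1 cells with CRISPR knockout of WRN were exposed overnight-seeded to eight 3-fold compound dilutions (0.1% DMSO) for 96 h at 37 °C. Viability was read as ATP by CellTiterGlo luminescence against a day-0 plate, giving GI50 and residual viability at top concentration.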

T1 sequence (Q14191 517-1238): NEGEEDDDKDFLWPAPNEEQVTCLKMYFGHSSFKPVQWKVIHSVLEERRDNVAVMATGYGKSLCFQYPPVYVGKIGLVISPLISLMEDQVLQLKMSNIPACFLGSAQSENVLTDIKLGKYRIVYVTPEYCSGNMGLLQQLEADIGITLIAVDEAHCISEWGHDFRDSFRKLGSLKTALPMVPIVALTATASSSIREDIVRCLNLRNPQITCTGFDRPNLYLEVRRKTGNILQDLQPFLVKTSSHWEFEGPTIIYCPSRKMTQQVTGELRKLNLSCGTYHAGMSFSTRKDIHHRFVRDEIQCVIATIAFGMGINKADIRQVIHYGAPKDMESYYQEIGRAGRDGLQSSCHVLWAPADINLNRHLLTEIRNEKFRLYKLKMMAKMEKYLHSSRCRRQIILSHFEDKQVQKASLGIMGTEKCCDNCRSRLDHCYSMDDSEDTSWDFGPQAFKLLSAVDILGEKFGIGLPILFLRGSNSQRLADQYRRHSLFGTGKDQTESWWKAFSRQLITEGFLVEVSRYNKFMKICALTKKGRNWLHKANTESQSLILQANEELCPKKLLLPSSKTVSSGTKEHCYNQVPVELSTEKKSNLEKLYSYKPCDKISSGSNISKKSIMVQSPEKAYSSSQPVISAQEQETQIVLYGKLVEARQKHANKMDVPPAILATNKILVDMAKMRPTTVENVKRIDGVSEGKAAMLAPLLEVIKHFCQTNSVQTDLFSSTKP

Row | SMILES | IC50 [1] | GI50 (SW48 cells) | GI50 (DLD1-WRN-KO cells)
1 | CC(=O)N1CCN(c2c(C)n(CC(=O)Nc3ccc(C(F)(F)F)cc3)c3nc(C4=CCOCC4)nn3c2=O)C[C@H]1C [Example 63, (R)-2-(6-(4-acetyl-3-methylpiperazin-1-yl)-2-(3,6-dihydro-2H-pyran-4-yl)-5-methyl-7-oxo-[1,2,4]triazolo[1,5-a]pyrimidin-4(7H)-yl)-N-(4-(trifluoromethyl)phenyl)acetamide] | 500 nM | 4 µM | > 10 µM
2 | CC(=O)N1CCN(c2c(C)n(CC(=O)Nc3ccc(C(F)(F)F)cc3)c3nc(C4=CCCC4)nn3c2=O)CC1 [Example 110, 2-(6-(4-acetylpiperazin-1-yl)-2-(cyclopent-1-en-1-yl)-5-methyl-7-oxo-[1,2,4]triazolo[1,5-a]pyrimidin-4(7H)-yl)-N-(4-(trifluoromethyl)phenyl)acetamide] | 200 nM | 5 µM | > 10 µM
3 | CCc1c(N2CCN(C(=O)c3ncc4c(c3O)OCC4)CC2)c(=O)n2nc(C3=CCOCC3)nc2n1CC(=O)Nc1ccc(C(F)(F)F)cc1Cl [Example 11, N-(2-chloro-4-(trifluoromethyl)phenyl)-2-(2-(3,6-dihydro-2H-pyran-4-yl)-5-ethyl-6-(4-(7-hydroxy-2,3-dihydrofuro[3,2-c]pyridine-6-carbonyl)piperazin-1-yl)-7-oxo-[1,2,4]triazolo[1,5-a]pyrimidin-4(7H)-yl)acetamide] | 50 nM | 0.06 µM | > 10 µM
4 | Cc1c(N2CCN(C(=O)c3c(O)ccc4ccnn34)CC2)c(=O)n2nc(C3=CCOCC3)nc2n1CC(=O)Nc1ccc(C(F)(F)F)cc1 [Example 35, 2-(2-(3,6-dihydro-2H-pyran-4-yl)-6-(4-(6-hydroxypyrazolo[1,5-a]pyridine-7-carbonyl)piperazin-1-yl)-5-methyl-7-oxo-[1,2,4]triazolo[1,5-a]pyrimidin-4(7H)-yl)-N-(4-(trifluoromethyl)phenyl)acetamide] | 40 nM | 0.3 µM | > 10 µM
5 | Cc1c(C2CCN(C(=O)c3ccc(F)c(F)c3O)CC2)c(=O)n2nc(N3CCOCC3)nc2n1CC(=O)Nc1ccc(C(F)(F)F)cc1 [Example 146, 2-(6-(1-(3,4-difluoro-2-hydroxybenzoyl)piperidin-4-yl)-5-methyl-2-morpholino-7-oxo-[1,2,4]triazolo[1,5-a]pyrimidin-4(7H)-yl)-N-(4-(trifluoromethyl)phenyl)acetamide] | 90 nM | 4 µM | > 10 µM
6 | Cc1c(N2CCN(C(=O)c3c(F)ccc(F)c3O)C(C)C2)c(=O)n2nc(C3=CCOCC3)nc2n1CC(=O)Nc1ccc(C(F)(F)F)cc1 (stereo not drawn) [Example 148, 2-(6-(4-(3,6-difluoro-2-hydroxybenzoyl)-3-methylpiperazin-1-yl)-2-(3,6-dihydro-2H-pyran-4-yl)-5-methyl-7-oxo-[1,2,4]triazolo[1,5-a]pyrimidin-4(7H)-yl)-N-(4-(trifluoromethyl)phenyl)acetamide] | 60 nM | 0.3 µM | > 10 µM
7 | CC(=O)N1CCN(c2c(C)n(CC(=O)Nc3cc(F)c(C(F)(F)F)cc3C)c3nc(C4=CCOCC4)nn3c2=O)CC1 [Example 83, 2-(6-(4-acetylpiperazin-1-yl)-2-(3,6-dihydro-2H-pyran-4-yl)-5-methyl-7-oxo-[1,2,4]triazolo[1,5-a]pyrimidin-4(7H)-yl)-N-(5-fluoro-2-methyl-4-(trifluoromethyl)phenyl)acetamide] | 300 nM | 2 µM | > 10 µM
8 | CC(=O)N1CCN(c2c(C)n(CC(=O)Nc3ccc(Cl)cc3)c3nc(C4=CCCCO4)nn3c2=O)CC1 [Example 79, 2-(6-(4-acetylpiperazin-1-yl)-2-(3,4-dihydro-2H-pyran-6-yl)-5-methyl-7-oxo-[1,2,4]triazolo[1,5-a]pyrimidin-4(7H)-yl)-N-(4-chlorophenyl)acetamide] | 200 nM | 5 µM | > 10 µM
9 | CC(=O)N1CCN(c2c(C)n(CC(=O)Nc3ccc(C(F)(F)F)cc3)c3nc(-c4cnn(C(F)F)c4)nn3c2=O)CC1 [Example 128, 2-(6-(4-acetylpiperazin-1-yl)-2-(1-(difluoromethyl)-1H-pyrazol-4-yl)-5-methyl-7-oxo-[1,2,4]triazolo[1,5-a]pyrimidin-4(7H)-yl)-N-(4-(trifluoromethyl)phenyl)acetamide] | 800 nM | 7 µM | > 10 µM
10 | CC(=O)N1CCN(c2c(C)n(CC(=O)Nc3ccc(Cl)c4c3CCC4)c3nc(C4=CCOCC4)nn3c2=O)CC1 [Example 129, 2-(6-(4-acetylpiperazin-1-yl)-2-(3,6-dihydro-2H-pyran-4-yl)-5-methyl-7-oxo-[1,2,4]triazolo[1,5-a]pyrimidin-4(7H)-yl)-N-(7-chloro-2,3-dihydro-1H-inden-4-yl)acetamide] | 800 nM | 5 µM | > 10 µM
11 | Cc1c(N2CCN(C(=O)c3cnccc3O)CC2)c(=O)n2nc(C3=CCOCC3)nc2n1CC(=O)Nc1ccc(C(F)(F)F)cc1 [Example 24, 2-(2-(3,6-dihydro-2H-pyran-4-yl)-6-(4-(4-hydroxynicotinoyl)piperazin-1-yl)-5-methyl-7-oxo-[1,2,4]triazolo[1,5-a]pyrimidin-4(7H)-yl)-N-(4-(trifluoromethyl)phenyl)acetamide] | 200 nM | > 10 µM | > 10 µM
12 | CCc1ccc(NC(=O)Cn2c(C)c(N3CCN(C(C)=O)CC3)c(=O)n3nc(C4=CCCCO4)nc23)cc1Cl [Example 31, 2-(6-(4-acetylpiperazin-1-yl)-2-(3,4-dihydro-2H-pyran-6-yl)-5-methyl-7-oxo-[1,2,4]triazolo[1,5-a]pyrimidin-4(7H)-yl)-N-(3-chloro-4-ethylphenyl)acetamide] | 200 nM | 6 µM | > 10 µM
13 | CC(=O)N1C2CCC1CN(c1c(C)n(CC(=O)Nc3ccc(C(F)(F)F)cc3)c3nc(C4=CCOCC4)nn3c1=O)C2 [Example 161, 2-(6-(8-acetyl-3,8-diazabicyclo[3.2.1]octan-3-yl)-2-(3,6-dihydro-2H-pyran-4-yl)-5-methyl-7-oxo-[1,2,4]triazolo[1,5-a]pyrimidin-4(7H)-yl)-N-(4-(trifluoromethyl)phenyl)acetamide] | 700 nM | 5 µM | > 10 µM
14 | CCc1c(C2=CCN(C(C)=O)CC2)c(=O)n2nc(C3=CCC(OC)CC3)nc2n1CC(=O)Nc1ccc(C(F)(F)F)cc1 (stereo not drawn) [Example 140, 2-(6-(1-acetyl-1,2,3,6-tetrahydropyridin-4-yl)-5-ethyl-2-(4-methoxycyclohex-1-en-1-yl)-7-oxo-[1,2,4]triazolo[1,5-a]pyrimidin-4(7H)-yl)-N-(4-(trifluoromethyl)phenyl)acetamide] | 100 nM | 4 µM | > 10 µM
15 | CC(=O)N1CCN(c2c(C)n(CC(=O)Nc3ccc(S(F)(F)(F)(F)F)cc3)c3nc(C4=CCCCO4)nn3c2=O)CC1 [Example 127, 2-(6-(4-acetylpiperazin-1-yl)-2-(3,4-dihydro-2H-pyran-6-yl)-5-methyl-7-oxo-[1,2,4]triazolo[1,5-a]pyrimidin-4(7H)-yl)-N-(4-(pentafluoro-16-sulfaneyl)phenyl)acetamide] | 20 nM | > 10 µM | 7 µM
16 | CC(=O)N1CCN(c2c(C)n(CC(=O)Nc3ccc(C(F)(F)F)cc3)c3nc(C4=CCCOC4)nn3c2=O)CC1 [Example 126, 2-(6-(4-acetylpiperazin-1-yl)-2-(5,6-dihydro-2H-pyran-3-yl)-5-methyl-7-oxo-[1,2,4]triazolo[1,5-a]pyrimidin-4(7H)-yl)-N-(4-(trifluoromethyl)phenyl)acetamide] | 800 nM | 4 µM | > 10 µM
17 | Cc1c(N2CCN(C(=O)Nc3nccs3)CC2)c(=O)n2nc(C3=CCOCC3)nc2n1CC(=O)Nc1ccc(C(F)(F)F)cc1 [Example 29, 4-(2-(3,6-dihydro-2H-pyran-4-yl)-5-methyl-7-oxo-4-(2-oxo-2-((4-(trifluoromethyl)phenyl)amino)ethyl)-4,7-dihydro-[1,2,4]triazolo[1,5-a]pyrimidin-6-yl)-N-(thiazol-2-yl)piperazine-1-carboxamide] | 100 nM | 2 µM | > 10 µM
18 | Cc1c(N2CCN(C(=O)c3cccnc3O)CC2)c(=O)n2nc(C3=CCOCC3)nc2n1CC(=O)Nc1ccc(C(F)(F)F)cc1 [Example 48, 2-(2-(3,6-dihydro-2H-pyran-4-yl)-6-(4-(2-hydroxynicotinoyl)piperazin-1-yl)-5-methyl-7-oxo-[1,2,4]triazolo[1,5-a]pyrimidin-4(7H)-yl)-N-(4-(trifluoromethyl)phenyl)acetamide] | 100 nM | > 10 µM | > 10 µM
19 | CC(=O)N1CCN(c2c(C)n(CC(=O)Nc3c(C)cc(C(F)(F)F)cc3Cl)c3nc(C4=CCOCC4)nn3c2=O)CC1 [Example 96, 2-(6-(4-acetylpiperazin-1-yl)-2-(3,6-dihydro-2H-pyran-4-yl)-5-methyl-7-oxo-[1,2,4]triazolo[1,5-a]pyrimidin-4(7H)-yl)-N-(2-chloro-6-methyl-4-(trifluoromethyl)phenyl)acetamide] | 800 nM | 3 µM | > 10 µM
